Data as given in the supplement of paper PMC4862054.

Tested on: CAL-51
Assay: normalised response (% of control), CellTiter-Glo; higher = more viable cells (100 = DMSO, 0 = benzethonium chloride kill control)
Settings: incubation time: 72 h
Protocol: (§1)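 DSRT, 72 h incubation, CellTox Green / CellTiter-Glo readout. Signal is normalised to DMSO and benzethonium chloride controls. Value is the normalised response at dose 3.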

Compound | normalised response
Nc1nc(Cl)nc2c1ncn2[C@H]1C[C@H](O)[C@@H](CO)O1 [Cladribine] (10 nM) | 84.4%
COc1cccc2c1C(=O)c1c(O)c3c(c(O)c1C2=O)C[C@@](O)(C(=O)CO)C[C@@H]3O[C@H]1C[C@H](N)[C@H](O)[C@H](C)O1 [Doxorubicin] (10 nM) | 91.8%
CC(=O)O[C@]1(C(C)=O)CC[C@H]2[C@@H]3C=C(C)C4=CC(=O)CC[C@]4(C)[C@H]3CC[C@@]21C [Megestrol acetate] (100 nM) | 109%
CN(C)C/C=C/C(=O)Nc1cc2c(Nc3ccc(F)c(Cl)c3)ncnc2cc1O[C@H]1CCOC1 [Afatinib] (10 nM) | 87.7%
COc1cccc2cc(-c3nc([C@H]4CC[C@H](C(=O)O)CC4)n4ncnc(N)c34)[nH]c12 [OSI-027] (100 nM) | 103%
N#CC[C@H](C1CCCC1)n1cc(-c2ncnc3[nH]ccc23)cn1 [Ruxolitinib] (100 nM) | 113%

Tested on: HDQ-P1
Assay: as above
Settings: incubation time: 72 h
Protocol: as §1

Compound | normalised response
O=C(c1ccc(C(=O)N2CCC(N3CCCC3)CC2)c(Nc2ccccc2)c1)N1CCC(N2CCCC2)CC1 [UNC1215] (300 nM) | 97.6%
CN1CC[C@H](c2c(O)cc(O)c3c(=O)cc(-c4ccccc4Cl)oc23)[C@H](O)C1 [Alvocidib] (100 nM) | 86.5%
OC[C@H]1O[C@@H](n2cnc3c2N=CNC[C@H]3O)C[C@@H]1O [Pentostatin] (100 nM) | 99%
Nc1nc(Cl)nc2c1ncn2[C@H]1C[C@H](O)[C@@H](CO)O1 [Cladribine] (10 nM) | 95.8%
COc1cccc2c1C(=O)c1c(O)c3c(c(O)c1C2=O)C[C@@](O)(C(=O)CO)C[C@@H]3O[C@H]1C[C@H](N)[C@H](O)[C@H](C)O1 [Doxorubicin] (10 nM) | 102%
CC(=O)O[C@]1(C(C)=O)CC[C@H]2[C@@H]3C=C(C)C4=CC(=O)CC[C@]4(C)[C@H]3CC[C@@]21C [Megestrol acetate] (100 nM) | 95.6%
CN(C)C/C=C/C(=O)Nc1cc2c(Nc3ccc(F)c(Cl)c3)ncnc2cc1O[C@H]1CCOC1 [Afatinib] (10 nM) | 81.2%
COc1cccc2cc(-c3nc([C@H]4CC[C@H](C(=O)O)CC4)n4ncnc(N)c34)[nH]c12 [OSI-027] (100 nM) | 97%
N#CC[C@H](C1CCCC1)n1cc(-c2ncnc3[nH]ccc23)cn1 [Ruxolitinib] (100 nM) | 100%

Tested on: MFM-223
Assay: as above
Settings: incubation time: 72 h
Protocol: as §1

Compound | normalised response
O=C(c1ccc(C(=O)N2CCC(N3CCCC3)CC2)c(Nc2ccccc2)c1)N1CCC(N2CCCC2)CC1 [UNC1215] (300 nM) | 97.7%
CN1CC[C@H](c2c(O)cc(O)c3c(=O)cc(-c4ccccc4Cl)oc23)[C@H](O)C1 [Alvocidib] (100 nM) | 96.9%
OC[C@H]1O[C@@H](n2cnc3c2N=CNC[C@H]3O)C[C@@H]1O [Pentostatin] (100 nM) | 100%
Nc1nc(Cl)nc2c1ncn2[C@H]1C[C@H](O)[C@@H](CO)O1 [Cladribine] (10 nM) | 104%
COc1cccc2c1C(=O)c1c(O)c3c(c(O)c1C2=O)C[C@@](O)(C(=O)CO)C[C@@H]3O[C@H]1C[C@H](N)[C@H](O)[C@H](C)O1 [Doxorubicin] (10 nM) | 108%
CC(=O)O[C@]1(C(C)=O)CC[C@H]2[C@@H]3C=C(C)C4=CC(=O)CC[C@]4(C)[C@H]3CC[C@@]21C [Megestrol acetate] (100 nM) | 99.1%
CN(C)C/C=C/C(=O)Nc1cc2c(Nc3ccc(F)c(Cl)c3)ncnc2cc1O[C@H]1CCOC1 [Afatinib] (10 nM) | 104%
COc1cccc2cc(-c3nc([C@H]4CC[C@H](C(=O)O)CC4)n4ncnc(N)c34)[nH]c12 [OSI-027] (100 nM) | 91.3%
N#CC[C@H](C1CCCC1)n1cc(-c2ncnc3[nH]ccc23)cn1 [Ruxolitinib] (100 nM) | 90.5%

Tested on: Hs578T
Assay: as above
Settings: incubation time: 72 h
Protocol: as §1

Compound | normalised response
O=C(c1ccc(C(=O)N2CCC(N3CCCC3)CC2)c(Nc2ccccc2)c1)N1CCC(N2CCCC2)CC1 [UNC1215] (300 nM) | 98%
CN1CC[C@H](c2c(O)cc(O)c3c(=O)cc(-c4ccccc4Cl)oc23)[C@H](O)C1 [Alvocidib] (100 nM) | 103%
OC[C@H]1O[C@@H](n2cnc3c2N=CNC[C@H]3O)C[C@@H]1O [Pentostatin] (100 nM) | 104%
Nc1nc(Cl)nc2c1ncn2[C@H]1C[C@H](O)[C@@H](CO)O1 [Cladribine] (10 nM) | 101%
COc1cccc2c1C(=O)c1c(O)c3c(c(O)c1C2=O)C[C@@](O)(C(=O)CO)C[C@@H]3O[C@H]1C[C@H](N)[C@H](O)[C@H](C)O1 [Doxorubicin] (10 nM) | 106%
CC(=O)O[C@]1(C(C)=O)CC[C@H]2[C@@H]3C=C(C)C4=CC(=O)CC[C@]4(C)[C@H]3CC[C@@]21C [Megestrol acetate] (100 nM) | 106%
CN(C)C/C=C/C(=O)Nc1cc2c(Nc3ccc(F)c(Cl)c3)ncnc2cc1O[C@H]1CCOC1 [Afatinib] (10 nM) | 101%
COc1cccc2cc(-c3nc([C@H]4CC[C@H](C(=O)O)CC4)n4ncnc(N)c34)[nH]c12 [OSI-027] (100 nM) | 95.3%
N#CC[C@H](C1CCCC1)n1cc(-c2ncnc3[nH]ccc23)cn1 [Ruxolitinib] (100 nM) | 94.4%

Tested on: SK-BR-3
Assay: as above
Settings: incubation time: 72 h
Protocol: as §1

Compound | normalised response
O=C(c1ccc(C(=O)N2CCC(N3CCCC3)CC2)c(Nc2ccccc2)c1)N1CCC(N2CCCC2)CC1 [UNC1215] (300 nM) | 94%
CN1CC[C@H](c2c(O)cc(O)c3c(=O)cc(-c4ccccc4Cl)oc23)[C@H](O)C1 [Alvocidib] (100 nM) | 87.8%
OC[C@H]1O[C@@H](n2cnc3c2N=CNC[C@H]3O)C[C@@H]1O [Pentostatin] (100 nM) | 100%
Nc1nc(Cl)nc2c1ncn2[C@H]1C[C@H](O)[C@@H](CO)O1 [Cladribine] (10 nM) | 108%
COc1cccc2c1C(=O)c1c(O)c3c(c(O)c1C2=O)C[C@@](O)(C(=O)CO)C[C@@H]3O[C@H]1C[C@H](N)[C@H](O)[C@H](C)O1 [Doxorubicin] (10 nM) | 107%
CC(=O)O[C@]1(C(C)=O)CC[C@H]2[C@@H]3C=C(C)C4=CC(=O)CC[C@]4(C)[C@H]3CC[C@@]21C [Megestrol acetate] (100 nM) | 94.3%
CN(C)C/C=C/C(=O)Nc1cc2c(Nc3ccc(F)c(Cl)c3)ncnc2cc1O[C@H]1CCOC1 [Afatinib] (10 nM) | 64.6%
